Measured values taken from patent US20030022826A1, “Use of synthetic peptides to induce tolerance to pathogenic T and B cell epitopes of autoantigens or infectious agents” (priority 1987, published 2003).
Marks after values point to notes of the source that are not given here.

Columns and labels:
[1] = test system: Th-B peptide, T1-SP10IIIB(A); assay: PBMC 3H-thymidine incorporation response to HIV Th-B peptide in immunized chimpanzees; type: in vivo, chimpanzee; details: 7 day tritiated thymidine incorporation assays
Text: Acpm=experimental cpm—control cpm.

HIVIIIB = assay: Anti-HIVIIIB neutralizing antibodies in immunized goats (reverse transcriptase inhibition); type: in vivo, HIV; details: 3 mg, CFA then IFA, after the fourth immunization
Experimental: FIG. 15. […] Goat 102A was immunized with 3 mg of the F-Th-B peptide, F-T1-SP10IIIB(A) and goat 104A was immunized with the HIVIIIB Th-B peptide, T1-SP10IIIB. Immunizations were in CFA (first dose) and IFA (doses 2-4). Neutralizing titers are titers at which reverse transcriptase production was inhibited by 90% or greater.
Immunizations: For goats, 3 mg of peptide were injected intramuscularly in each gluteal region in complete Freund's adjuvant (CFA) (1st dose), then incomplete Freund's adjuvant (IFA) (subsequent doses). For immunization of chimpanzees, varying doses of peptides were injected IM in IFA in a total volume of 4 cc, with 1 cc injected into right and left upper arms and thighs.
(§1) HIV Neutralization Assays: The ability of chimpanzee or goat serum antibodies to neutralize HIV was determined in syncytium inhibition assay and reverse transcriptase inhibition assay as previously described (Palker et al, J. Immunol. 142:3612 (1989); Palker et al, Proc. Natl. Acad. Sci. USA 85:1932 (1988)). Sera were heat inactivated (30 min, 56° C.) prior to each assay.

[2] = test system: Th-B peptide, T1-SP10IIIB; assay: Endpoint ELISA anti-peptide antibody titers in chimpanzees immunized with HIV env synthetic peptides; type: in vivo, chimpanzee; details: for immunogenicity in chimpanzees (antibody response): low (0.1 mg/kg) or high (0.5 mg/kg) doses in IFA
Experimental: Immunizations: For goats, 3 mg of peptide were injected intramuscularly in each gluteal region in complete Freund's adjuvant (CFA) (1st dose), then incomplete Freund's adjuvant (IFA) (subsequent doses). […]
When neither peptide design induced neutralizing anti-HIVIIIB antibodies, the peptide doses were increased to approximately 0.5 mg/kg (30 mg/animal) and the right-hand side neutralizing sequence of HIVIIIB gp120 V3 loop (the (A) region) (Hart et al, Proc. Natl. Acad. Sci. USA 88:9448; Rusche et al Proc. Natl. Acad. Sci. USA 85:3198)) (Table 8) was added to the Th-B peptide to enhance the ability of this peptide to induce anti-HIVIIIB neutralizing antibodies. After 3 monthly injections with either ˜0.5 mg/kg (30 mg) Th-B or F-Th-B peptide, the animals were rested for 6 months, and then reimmunized with either F-Th-B or Th-B with sequences from HIVIIIB, or with the Th-B peptide containing HIV env gp120 V3 sequences from the HIVMN isolate.

human JY B cells = assay: Peptide binding to human cells, flow cytometry with anti-gp120 mab 0.5beta; type: cell-based; details: mean channel fluoresence, peptide 10 ug/ml
Experimental: Anti-gp120 momoclonal antibody was 0.5beta from the NIAID AIDS Research and Reference Reagent Program (Matsushita et al J. Virol. 62:2107, 1988). […] The amount of fluoresence was determined on a flow cytometer and fluoresence brightness was expressed as MFC=mean channel fluoresence.

JY B cells = assay: Peptide entry into cells, intracytoplasmic fluorescence of acetone-fixed cells; type: cell-based, human; details: for % Intracytoplasmic Positive: peptide 10 μg/ml, 21 hours at 37 degrees C
Experimental: Cells were incubated as descirbed in Table 13. After 21 hours at 37 degrees C., cytocentrifuge preparations of cells were prepared, acetone fixed, and reacted either with control mab P3x63 AgS or with anti-qp120 mab 0.5beta. Slides were read for either faint or bright intracytoplasmic fluoresence on a fluoresence microscope.

HIV MN [3] = assay: Reverse transcriptase inhibition assay with sera of immunized chimpanzees, HIV MN; type: in vivo
Experimental: as §1

HIV MN [4] = assay: Syncytium inhibition assay with sera of immunized chimpanzees, HIV MN; type: in vivo
Experimental: as §1

HIV LAI/IIIB [5] = assay: Syncytium inhibition assay with sera of immunized chimpanzees, HIV LAI/IIIB; type: in vivo
Experimental: as §1

HIV LAI/IIIB [6] = assay: Reverse transcriptase inhibition assay with sera of immunized chimpanzees, HIV LAI/IIIB; type: in vivo
Experimental: as §1

[7] = chimpanzee 1045 serum, Month 19, prior F-Th-B(IIIB)
[8] = chimpanzee 1045 serum, Month 20, prior F-Th-B(IIIB)
[9] = chimpanzee 1070 serum, Month 18, prior F-Th-B(IIIB)
[10] = chimpanzee 1070 serum, Month 19, prior F-Th-B(IIIB)
[11] = chimpanzee 1070 serum, Month 20, prior F-Th-B(IIIB)

## KQIINMWQEVGKAMYACTRPNNNTRKSIRIQRGPG [Peptide T1-SP10IIIB, HIVIIIB Th-B peptide]
[1]
  PBMC proliferation to T1-SP10IIIB(A) peptide: induced high levels of proliferation
HIVIIIB
  induction of serum anti-HIV neutralizing antibodies: induced anti-HIV neutralizing antibodies in goats
[2]
  immunogenicity in chimpanzees (antibody response): potent immunogens

## KQIINMWQEVGKAMYACTRPNNNTRKSIRIQRGPGRAFVTI [T1-SP10IIIB(A), HIVIIIB Th-B peptide with (A) region]
Human JY B cells; 4 degrees C, 1 hour
  MFC 4 Degrees C., 1 Hr.: 14.7
Human JY B cells; 37 degrees C, 22 Hr.
  MFC 37 Degrees C., 22 Hr.: 14.0
[1]
  PBMC proliferation to T1-SP10IIIB(A) peptide: induced high levels of proliferation
[2]
  immunogenicity in chimpanzees (antibody response): potent immunogens
JY B cells; Anti-gp120 mab 0.5beta
  % Intracytoplasmic Positive: 0%
JY B cells; Control antibody (mab P3x63 AgS)
  % Intracytoplasmic Positive: 0%

## KQIINMWQEVGKAMYACTRPNYNKRKRIHIGPGRAFYTTK [T1-SP10MN(A), HIVMN Th-B peptide]
HIV MN [3]; chimpanzee 884 serum, Month 18, prior Th-B(IIIB)
  Reciprocal Titer in RT Inhibition Assay: 20
HIV MN [3]; chimpanzee 884 serum, Month 20, prior Th-B(IIIB)
  Reciprocal Titer in RT Inhibition Assay: 24
HIV MN [3]; chimpanzee 1045 serum, Month 18, prior F-Th-B(IIIB), Th-B(IIIB)
  Reciprocal Titer in RT Inhibition Assay: 23
HIV MN [3]; chimpanzee 1045 serum, Month 19, prior F-Th-B(IIIB), Th-B(IIIB)
  Reciprocal Titer in RT Inhibition Assay: 23
HIV MN [3]; chimpanzee 1045 serum, Month 20, prior F-Th-B(IIIB), Th-B(IIIB)
  Reciprocal Titer in RT Inhibition Assay: 24
HIV MN [3]; chimpanzee 1070 serum, Month 18, prior F-Th-B(IIIB), Th-B(IIIB)
  Reciprocal Titer in RT Inhibition Assay: 22
HIV MN [3]; chimpanzee 1070 serum, Month 19, prior F-Th-B(IIIB), Th-B(IIIB)
  Reciprocal Titer in RT Inhibition Assay: 96
HIV MN [3]; chimpanzee 1070 serum, Month 20, prior F-Th-B(IIIB), Th-B(IIIB)
  Reciprocal Titer in RT Inhibition Assay: 350
HIV MN [4]; chimpanzee 1045 serum, Month 18, prior F-Th-B(IIIB)
  Presence of Neutralization in Syncytium Inhibition Assay: − (<48% inhibition of syncytia.)
HIV MN [4]; [7]
  Presence of Neutralization in Syncytium Inhibition Assay: − (<48% inhibition of syncytia.)
HIV MN [4]; [8]
  Presence of Neutralization in Syncytium Inhibition Assay: − (<48% inhibition of syncytia.)
HIV MN [4]; [9]
  Presence of Neutralization in Syncytium Inhibition Assay: − (<48% inhibition of syncytia.)
HIV MN [4]; [10]
  Presence of Neutralization in Syncytium Inhibition Assay: + (≧80% inhibition of syncytia, titer 1:10.)
HIV MN [4]; [11]
  Presence of Neutralization in Syncytium Inhibition Assay: ++ (≧80% inhibition of syncytia, titer 1:20.)
[2]; chimpanzee 884, month 17, after Th-B(IIIB) months 2-14
  Reciprocal of ELISA Titer: 12,800
[2]; chimpanzee 884, month 18, after Th-B(IIIB) months 2-14
  Reciprocal of ELISA Titer: 25,600
[2]; chimpanzee 884, month 19, after Th-B(IIIB) months 2-14
  Reciprocal of ELISA Titer: 25,600
[2]; chimpanzee 884, month 20, after Th-B(IIIB) months 2-14
  Reciprocal of ELISA Titer: 51,200
[2]; chimpanzee 1028, month 17, after Th-B(IIIB) months 2-14, injections in PBS alone
  Reciprocal of ELISA Titer: 3,200
[2]; chimpanzee 1028, month 18, after Th-B(IIIB) months 2-14, injections in PBS alone
  Reciprocal of ELISA Titer: 6,400
[2]; chimpanzee 1028, month 19, after Th-B(IIIB) months 2-14, injections in PBS alone
  Reciprocal of ELISA Titer: 1,600
[2]; chimpanzee 1028, month 20, after Th-B(IIIB) months 2-14, injections in PBS alone
  Reciprocal of ELISA Titer: 6,400
[2]; chimpanzee 1045, month 17, after F-Th-B(IIIB) months 2-14 and Th-B(IIIB) month 16
  Reciprocal of ELISA Titer: 1,600
[2]; chimpanzee 1045, month 18, after F-Th-B(IIIB) months 2-14 and Th-B(IIIB) month 16
  Reciprocal of ELISA Titer: 6,400
[2]; chimpanzee 1045, month 19, after F-Th-B(IIIB) months 2-14 and Th-B(IIIB) month 16
  Reciprocal of ELISA Titer: 6,400
[2]; chimpanzee 1045, month 20, after F-Th-B(IIIB) months 2-14 and Th-B(IIIB) month 16
  Reciprocal of ELISA Titer: 51,200
[2]; chimpanzee 1070, month 17, after F-Th-B(IIIB) months 2-14 and Th-B(IIIB) month 16
  Reciprocal of ELISA Titer: 3,200
[2]; chimpanzee 1070, month 18, after F-Th-B(IIIB) months 2-14 and Th-B(IIIB) month 16
  Reciprocal of ELISA Titer: 25,600
[2]; chimpanzee 1070, month 19, after F-Th-B(IIIB) months 2-14 and Th-B(IIIB) month 16
  Reciprocal of ELISA Titer: 51,200
[2]; chimpanzee 1070, month 20 (month 20 immunization not given), after F-Th-B(IIIB) months 2-14 and Th-B(IIIB) month 16
  Reciprocal of ELISA Titer: 102,400#
HIV LAI/IIIB [5]; [7]
  Presence of Neutralization in Syncytium Inhibition Assay: +/− (≧49% and <80% inhibition of syncytia.)
HIV LAI/IIIB [5]; [8]
  Presence of Neutralization in Syncytium Inhibition Assay: − (<48% inhibition of syncytia.)
HIV LAI/IIIB [5]; [9]
  Presence of Neutralization in Syncytium Inhibition Assay: +/− (≧49% and <80% inhibition of syncytia.)
HIV LAI/IIIB [5]; [10]
  Presence of Neutralization in Syncytium Inhibition Assay: + (≧80% inhibition of syncytia, titer 1:10.)
HIV LAI/IIIB [5]; [11]
  Presence of Neutralization in Syncytium Inhibition Assay: +/− (≧49% and <80% inhibition of syncytia.)
HIV LAI/IIIB [6]; [7]
  Reciprocal Titer in RT Inhibition Assay: 23
HIV LAI/IIIB [6]; [8]
  Reciprocal Titer in RT Inhibition Assay: 22
HIV LAI/IIIB [6]; [9]
  Reciprocal Titer in RT Inhibition Assay: 92
HIV LAI/IIIB [6]; [10]
  Reciprocal Titer in RT Inhibition Assay: 100
HIV LAI/IIIB [6]; [11]
  Reciprocal Titer in RT Inhibition Assay: 86
JY B cells; 10 ug/ml of peptide for 21 hours at 37 degrees C
  detection of peptide inside the JY B cells: could not be detected
